Entries after “also recorded” stand apart in the source; their conditions may differ.
Columns and labels:
[1] = test system: cisplatin-resistant MDA-MB-468 cell line; experiment: In vitro drug sensitivity assay in cisplatin-resistant derivative; assay type: cell-based; settings: cisplatin-resistant derivative of NER-deficient MDA-MB-468
Procedure: (§1) Cells were seeded in either 96-well (5,000 cells/well) or 24-well (20,000 cells/well) plates. The following day, irofulven and cisplatin stock solutions were serially diluted in media and added to cells. After 48 to 72 hours, media was removed and CellTiter-Glo® reagent (Promega; Madison, WI) was added. Plates were scanned using a luminescence microplate reader (BioTek). Survival at each drug concentration was plotted as a percentage of survival in drug-free media with error bars representing the standard deviation of at least three experiments.
Platinum-based chemotherapy is a first-line treatment for numerous solid malignancies including bladder cancer, but platinum resistance frequently occurs and represents a challenging clinical problem. Although a variety of platinum resistance mechanisms have been characterized, restoration or upregulation of DNA repair is a common mechanism of resistance, particularly in HR-deficient breast and ovarian tumors^33. Mechanisms of platinum resistance in NER deficient tumors have not been characterized, and we wished to determine if acquired resistance to cisplatin would confer cross-resistance to irofulven through restoration of NER. To test this, we derived cisplatin resistance in the NER-deficient MDA-MB-468 cell line by gradual exposure to escalating doses of cisplatin (Methods).

[2] = test system: KU19-19 bladder cancer cell line (NER-proficient); experiment: In vitro drug sensitivity assay (CellTiter-Glo); assay type: cell-based; settings: NER-proficient KU19-19; 48 to 72 hours
Procedure: as §1

[3] = test system: KE1 bladder cancer cell line (ERCC2-mutated derivative of KU19-19, NER-deficient); experiment: In vitro drug sensitivity assay (CellTiter-Glo); assay type: cell-based; settings: NER-deficient KE1, compared with isogenic KU19-19; 48 to 72 hours
Source text: (§2) Bladder cancer cell lines were purchased from ATCC. The KE1 bladder cancer cell line is a derivative of KU19-19 in which an ERCC2 T484 mutation has been introduced by CRISPR/Cas9 gene editing as previously described (6). The MDA-MB-468 breast cancer cell line and its ERCC4-complemented derivative have been previously described (35). Small interfering RNAs (siRNAs) targeting specific NER genes as well as a non-targeting siRNA (siNTC) were purchased from Integrated DNA Technologies Inc. (Coralville, IA, USA; see Table 9 for sequences). Cells were seeded in 6-well plates and grown to 50% confluency. A transfection mixture containing siRNA diluted to a final concentration of 30 nM in Opti-MEM media containing Lipofectamine 3000 (Life Technologies; Carlsbad, CA) was then added to cells. After 48 hours, cells were trypsinized and re-aliquoted to separate wells and transfected with 15 nM siRNA for 24 hours immediately prior to viability assays performed as described below. […]
(§3) Cells were seeded in either 96-well (5,000 cells/well) or 24-well (20,000 cells/well) plates. […] Plates were scanned using a luminescence microplate reader (BioTek). […]

[4] = test system: SC14 (SW1710 derivative with ERCC2 P463L mutation); experiment: In vitro drug sensitivity assay; assay type: cell-based; settings: ERCC2-mutant SC14 line compared with SW1710
Source text: as §2, §3

[5] = test system: KE1 cells (NER-deficient); experiment: Immunoblotting after irofulven treatment; assay type: cell-based
Procedure: Cells were lysed with ice-cold RIPA buffer supplemented with protease and phosphatase inhibitors (Roche). Samples were then sonicated and protein concentrations were determined using the Bradford assay. Sample buffer (Bio-Rad) was added and samples were then denatured at 90° C. for 10 mins. Samples were then loaded in NuPAGE™ protein gels (Thermo Fisher Scientific) and run at 90V for 2-3 hours. The gels were then transferred to nitrocellulose membranes at 30V overnight. Membranes were blocked for 30 mins in 5% milk in TBS buffer. Sections of the membrane corresponding to the appropriate molecular weights were stained overnight in primary antibodies prepared in 1% milk in TBST: XPF (1:700, clone D3G8C rabbit mAB, Cell Signaling); cleaved caspase 3 (1:1000, clone D175, rabbit mAB, Cell Signaling); total and cleaved PARP (1:1000, rabbit mAB, Cell Signaling); phospho-H2AX Ser139 (1:1000, clone JBW301 mouse mAB, Millipore); β-tubulin (1:1000, mouse mAB, Santa Cruz Technologies); Rpb1 CTD (1:1000, clone 4H8 Mouse mAb, Cell Signaling). A Licor Odyssey Infrared Imaging System was used for signal detection using IRDYE-conjugated secondary antibodies (LI-COR Biosciences).
Cells were lysed with ice-cold RIPA buffer supplemented with protease and phosphatase inhibitors (Roche). Samples were then sonicated and protein concentrations were determined using the Bradford assay. […]

[6] = test system: variety of tumor types, biomarker-unselected populations; settings: single agent, Phase I/II clinical trials; cited from earlier work
[7] = test system: non-tumor cell lines with a TC-NER or common NER pathway gene defect; settings: cited from earlier work

In the case of `CC1=C(CO)C2=C(C)C3(CC3)[C@@](C)(O)C(=O)C2=C1` [irofulven], the irofulven sensitivity [1] is reported as “remains sensitive; also recorded: highly sensitive”, the “drug sensitivity (survival as percentage of drug-free media)” value [2] is reported as “minimal sensitivity” and the “drug sensitivity (survival as percentage of drug-free media)” value [3] is reported as “significantly more sensitive; also recorded: highly sensitive; also recorded: increased sensitivity”. For the same compound, the drug sensitivity [4] was “significantly increased sensitivity”, the “RNA polymerase level (immunoblot)” value ([5]; following irofulven treatment, KE1) was “time-dependent loss” and the “phospho-H2AX (γH2AX), cleaved PARP and cleaved caspase-3 (immunoblot)” value ([5]; irofulven-treated NER-deficient cells) was “accumulation”. The tolerability [6] was “well-tolerated” and the “toxicity to cells from patients with inactivating mutations in a TC-NER or common NER gene” value [7] was “highly toxic”.
